One data set is described as follows: Identification of perfumery raw materials that promote hydrogen sulfide formation (1:1 w/w mix, storage, smell). Format: physicochemical. To be noted: raw materials named in Example 2 as not promoting; test conditions not repeated there. As to the method: In other words, each of the perfumery raw materials being present in the perfume composition is capable of inducing a hydrogen sulfide smell when being mixed individually in a 1:1 (w/w) ratio with the sulfur-containing pro-fragrance compound and being stored for 2 weeks at 50° C. Preferably, a hydrogen sulfide smell is induced when being mixed in a 1:1 (w/w) ratio with 3-(dodecylthio)-1-(2,6,6-trimethylcyclohex-3-en-1-yl) butan-1-one (HaloScent® D) and stored for 2 weeks at 50° C. Preferably, the mixing is carried out in a 10 mL glass jar. The perfumery raw materials may be used as such or may be dissolved in a solvent, for example at a concentration of from 10% to 50%.
Perfumery raw materials that promote the formation of hydrogen sulfide from 3-(dodecylthio)-1-(2,6,6-trimethylcyclohex-3-en-1-yl) butan-1-one (HaloScent® D) have been identified by mixing individual perfumery raw materials with 3-(dodecylthio)-1-(2,6,6-trimethylcyclohex-3-en-1-yl) butan-1-one (HaloScent® D) in a 1:1 (w/w) ratio in a 10 mL glass jar and storing said mixture for 2 weeks at 50° C. In case a hydrogen sulfide smell (similar to rotten egg odor) could be perceived after 2 weeks, it has been concluded that the perfumery raw material promotes the formation of hydrogen sulfide from 3-(dodecylthio)-1-(2,6,6-trimethylcyclohex-3-en-1-yl) butan-1-one (HaloScent® D).
`CC(C)CCCC(C)CCO` (racemic) [(+/−)-3,7-dimethyl-1-octanol]: the “promotion of formation of hydrogen sulfide from HaloScent® D” value (“promotion” below) is “do not promote the formation of hydrogen sulfide”.

In the case of `CC1C(C)(C)C2=C(C(=O)CCC2)C1(C)C` (stereo not shown) [1,1,2,3,3-pentamethyl-1,2,3,5,6,7-hexahydro-4H-inden-4-one], the “promotion” value is given as “do not promote the formation of hydrogen sulfide”. As to `CC(=O)OC(C)(C)Cc1ccccc1` [1,1-dimethyl-2-phenylethyl acetate], the “promotion” value was “do not promote the formation of hydrogen sulfide”.

For the molecule `CCCC(=O)OC(C)(C)Cc1ccccc1` [1,1-dimethyl-2-phenylethyl butanoate], the “promotion” value is “do not promote the formation of hydrogen sulfide”. Same read-out and setting: the same measure for `c1ccc(Oc2ccccc2)cc1` [1,1′-oxydibenzene]: “do not promote the formation of hydrogen sulfide”.

Consider `O=C1CCCCCCCCCCCC(=O)OCCO1` [1,4-dioxacycloheptadecane-5,17-dione], for which the “promotion” value is listed as “do not promote the formation of hydrogen sulfide”. Same read-out and setting: the same measure for `COc1ccc(C)cc1` [1-methoxy-4-methylbenzene]: “do not promote the formation of hydrogen sulfide”; for `C=C(OC(C)=O)c1ccccc1` [1-phenylvinyl acetate]: “do not promote the formation of hydrogen sulfide”. The same measure, in the same setting: the same measure for `C=CCc1ccc(O)c(OC)c1` [2-methoxy-4-(2-propen-1-yl) phenol]: “do not promote the formation of hydrogen sulfide”; for `C/C=C/c1ccc(O)c(OC)c1` [2-methoxy-4-[(1E)-1-propen-1-yl]phenol]: “do not promote the formation of hydrogen sulfide”; for `CCCC(=O)OCC(C)CC` (stereo not shown) [2-methylbutyl butyrate]: “do not promote the formation of hydrogen sulfide”. The same measure, in the same setting: the same measure for `CCCC(=O)OCCC(C)C` [3-methylbutyl butyrate]: “do not promote the formation of hydrogen sulfide”.

For `CC(=O)OC1CCC(C(C)(C)C)CC1` (stereo not shown) [4-(2-methyl-2-propanyl)cyclohexyl acetate], the “promotion” value is reported as “do not promote the formation of hydrogen sulfide”.

Turning to `CC(=O)O[C@@H]1CC2CC[C@]1(C)C2(C)C` [(1R,2R)-1,7,7-trimethyl-bicyclo[2.2.1]hept-2-yl acetate], the “promotion” value is recorded as “do not promote the formation of hydrogen sulfide”. Still for that read-out and setting: next, `COC(Cc1ccccc1)OC` [(2,2-dimethoxyethyl)benzene]: “do not promote the formation of hydrogen sulfide”; `CC/C=C\CCO` [(3Z)-3-hexen-1-ol]: “do not promote the formation of hydrogen sulfide”; `CC/C=C\CCOC(=O)OC` [(3Z)-hex-3-en-1-yl methyl carbonate]: “do not promote the formation of hydrogen sulfide”. The same measure, in the same setting: the same measure for `CC/C=C\CCOC(C)=O` [(Z)-3-hexenyl acetate]: “do not promote the formation of hydrogen sulfide”; for `CC(=O)c1ccccc1` [acetophenone]: “do not promote the formation of hydrogen sulfide”. Still for that read-out and setting: the same measure for `C=CCOC(=O)COC1CCCCC1` [allyl (cyclohexyloxy)acetate]: “do not promote the formation of hydrogen sulfide”.

Turning to `C=CCOC(=O)CCCCC` [allyl hexanoate], the “promotion” value is “do not promote the formation of hydrogen sulfide”. The same measure, in the same setting: next, `CCOC(=O)/C=C/c1ccccc1` [ethyl (E)-3-phenyl-2-propenoate]: “do not promote the formation of hydrogen sulfide”; `CCCC(=O)OCC` [ethyl butanoate]: “do not promote the formation of hydrogen sulfide”; `CCCCCCOC(C)=O` [hexyl acetate]: “do not promote the formation of hydrogen sulfide”. The same measure, in the same setting: the same measure for `COC(=O)c1ccccc1O` [methyl 2-hydroxybenzoate]: “do not promote the formation of hydrogen sulfide”.

For `CC(=O)OC1CC2CC1C1CC=CC21` (stereo not shown) [tricyclo[5.2.1.02,6]dec-¾-en-8-yl acetate], the “promotion” value is “do not promote the formation of hydrogen sulfide”. On the same count and under the same terms, the same measure for allyl(⅔-methylbutoxy)acetate: “do not promote the formation of hydrogen sulfide”.

The next data set can be described thus: logP above 4 (octanol-water partition coefficient). As to conditions: Yes/No.
For 3-methyl-4/5-cyclopentadecen-1-one, the “logP > 4” value is given as “Yes”. `CC1(C)CCC[C@]2(C)[C@H]3CCO[C@]3(C)CC[C@@H]12` (racemic) [(3aRS,5aSR,9aSR,9bRS)-3a,6,6,9a-tetramethyldodecahydronaphtho[2,1-b]furan]: the “logP > 4” value was “Yes”.

Regarding `C=CC(C)(CCC=C(C)C)OC(C)=O` (racemic) [(+/−)-1,5-dimethyl-1-vinyl-4-hexenyl acetate], the “logP > 4” value is reported as “Yes”.

As to `CCC(O)COC1CCCCC1C(C)(C)C` (racemic) [(+/−)-1-(2-tert-butyl-1-cyclohexyloxy)-2-butanol], the “logP > 4” value is given as “Yes”. On the same count and under the same terms, next, `Cc1ccc2c(c1)CC(C)(CO)C2` (racemic) [(+/−)-2,5-dimethyl-2,3-dihydro-1H-inden-2-yl)methanol]: “No”; `CCC(=CCC1CC=C(C)C1(C)C)CO` (racemic) [(+/−)-2-ethyl-4-(2,2,3-trimethyl-3-cyclopenten-1-yl)-2-buten-1-ol]: “Yes”; `CC(CO)c1ccccc1` (racemic) [(+/−)-2-phenyl-1-propanol]: “No”. The same measure, in the same setting: next, `C=CC(C)(O)CCC=C(C)C` (racemic) [(+/−)-3,7-dimethyl-1,6-octadien-3-ol]: “No”. `CCC(C)(O)CCCC(C)C` (racemic) [(+/−)-3,7-dimethyl-3-octanol]: the “logP > 4” value is given as “No”. As for `CC1=CCC(C(C)(C)O)CC1` (racemic) [(+/−)-alpha-terpineol], the “logP > 4” value was “No”. Same read-out and setting: next, `C=CC(C)CCCC(C)(C)O` (racemic) [(+−)-2,6-dimethyl-7-octen-2-ol]: “No”. On the same count and under the same terms, the same measure for `CCCCC[C@H]1C(=O)CC[C@@H]1CC(=O)OC` (racemic) [methyl 2-((1RS,2RS)-3-oxo-2-pentylcyclopentyl)acetate]: “No”; for `CC(=O)c1ccc2ccccc2c1` [1-(2-naphthyl)ethanone]: “No”. On the same count and under the same terms, next, `CC(=O)C1(C)CC2=C(CCCC2(C)C)CC1C` (stereo not shown) [1-(octahydro-2,3,8,8-tetramethyl-2-naphtalenyl)-1-ethanone]: “Yes”; `CCOc1ccc2ccccc2c1` [2-ethoxynaphthalene]: “No”; `OCCc1ccccc1` [2-phenylethanol]: “No”.

`CC(=O)CCc1ccc(O)cc1` [4-(4-hydroxyphenyl)-2-butanone]: the “logP > 4” value is on record as “No”. Same read-out and setting: the same measure for `CC/C=C\CCOC(=O)c1ccccc1O` [(3Z)-3-hexen-1-yl salicylate]: “Yes”; for `CC1=CC[C@H](/C=C/C(C)(C)C(C)O)C1(C)C` (stereo partly drawn) [(4E)-3,3-dimethyl-5-[(1R)-2,2,3-trimethyl-3-cyclopenten-1-yl]-4-penten-2-ol]: “Yes”. The same measure, in the same setting: next, `CCC(=O)OCC(C)(C)O[C@@H](C)[C@@H]1CCCC(C)(C)C1` [(+)-2-{(1S)-1-[(1R)-3,3-dimethylcyclohexyl]ethoxy}-2-methylpropyl propionate]: “Yes”; `CC(C)=CCC[C@@H](C)CC#N` [(−)-(R)-3,7-dimethyl-6-octenenitrile]: “No”. The same measure, in the same setting: the same measure for `c1ccc2[nH]ccc2c1` [Indole]: “No”. Consider `C=CCOC(=O)CCC1CCCCC1` [allyl 3-cyclohexylpropanoate], for which the “logP > 4” value is listed as “Yes”.

As for `N#CC(=C1CCCCC1)c1ccccc1` [cyclohexylidene(phenyl)acetonitrile], the “logP > 4” value is listed as “No”. For the molecule “tricyclo[5.2.1.0^2,6]dec-3/4-en-8-yl propanoate”, the “logP > 4” value is reported as “Yes”.

For the origin of these results see patent publication US20240376411A1, “IMPROVED PERFUME COMPOSITIONS COMPRISING SULFUR-CONTAINING PRO-FRAGRANCE COMPOUNDS” (FIRMENICH SA, priority 2021, published 2024).
